Reference: patent US8906393B2, “Biofilm inhibiting composition” (Rutgers, The State University of New Jersey, priority 2011, dated 2014)

What was measured:
[1] = test system: K. pneumoniae; test: Biofilm inhibition assay (96-well microtiter plate); format: cell-based, Klebsiella pneumoniae; conditions: K. pneumoniae 1840; crystal violet
Protocol: (§1) Biofilm inhibition assay. Biofilms were cultured in 96-well polystyrene microtiter plates as previously described. Briefly, cells were diluted to 104 to […] CFU/ml in TSB supplemented with 0.1 vol of PAM extract, or 0.1 vol of water as a control. Aliquots of cells (200 μl each) were transferred to the wells of a microtiter plate, and the plate was incubated at 37° C. for 18 h. Biofilms were washed with water and stained for 1 min with 200 μl of Gram's crystal violet. Stained biofilms were rinsed with water and dried. The amount of crystal violet binding was quantitated by destaining the biofilms for 10 min with 200 μl of 33% acetic acid, and then measuring the absorbance of the crystal violet solution at 595 nm. All assays were performed 3-5 times with similarly significant decreases in absorbance values.

[2] = test system: S. aureus strain SH1000; test: Biofilm inhibition assay (96-well microtiter plate crystal violet binding); format: cell-based, Staphylococcus aureus
Protocol: as §1
Expressing the K. kingae pam genes in E. coli. Plasmids pGEM-T, pMB10, pMB5 and pMB9 were transformed into E. coli strain JM109. Transformants were selected on agar supplemented with 50 μg/ml ampicillin. Lawns of transformants were grown on agar plates supplemented with 50 μg/ml ampicillin and 1 mM IPTG. Lawns were harvested and cell-free extracts were prepared by ultracentrifugation as described above. Extracts were sterilized by passage through a 0.22-μm filter, incubated at 100° C. for 15 min, and then tested for activity in the biofilm inhibition assay described above.

[3] = test system: K. kingae; test: Biofilm inhibition assay (96-well microtiter plate); format: cell-based, Kingella kingae; conditions: K. kingae PYKK181; crystal violet
Protocol: as §1

Measured: biofilm-inhibiting activity of purified PAM galactan

→3)-β-D-Galf-(1→6)-β-D-Galf-(1→ [PAM galactan]
exhibited biofilm-inhibiting activity: all assays above
